Test results reported in US10336702B2, “Pharmaceutically active compounds” (BERGENBIO ASA, priority 2015, dated 2019).

Tests used:
Akt2 = molecular target: T1, Akt2 (Homo sapiens, UniProt P31751); assay: Akt activation assay (PDK1-mediated activation, LANCE Ultra crosstide TR-FRET), Akt2; type: biochemical; details: read-out: Biological Assay 1 IC50 (nM) Akt2
T1 construct: unspecified tag, removed (detagged) (cleaved yes); purchased SignalChem and Proteros (Akt2); Merck Millipore (PDK1) 14-452 (PDK1); none given for Akt2
T1 sequence (P31751 whole entry): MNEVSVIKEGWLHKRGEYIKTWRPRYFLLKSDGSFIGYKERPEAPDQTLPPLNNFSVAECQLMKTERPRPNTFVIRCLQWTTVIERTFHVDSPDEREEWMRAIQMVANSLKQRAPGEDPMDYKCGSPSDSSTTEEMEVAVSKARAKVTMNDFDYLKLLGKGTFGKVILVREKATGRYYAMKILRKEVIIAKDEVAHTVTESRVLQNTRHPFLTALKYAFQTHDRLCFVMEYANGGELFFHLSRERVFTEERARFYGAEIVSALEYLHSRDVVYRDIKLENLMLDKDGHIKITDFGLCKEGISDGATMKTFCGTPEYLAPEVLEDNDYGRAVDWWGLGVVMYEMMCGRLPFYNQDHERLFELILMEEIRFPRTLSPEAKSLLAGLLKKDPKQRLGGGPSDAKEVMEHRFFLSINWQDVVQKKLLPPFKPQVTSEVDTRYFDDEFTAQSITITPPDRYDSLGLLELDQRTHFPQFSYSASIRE
Experimental: (§1) Biological Assay 1: Akt Activation Assay
(§2) Addition of a Europium-labelled antibody specific to the phosphopeptide allows energy transfer from the Europium donor to the Ultra Ulight™ acceptor if close enough in proximity.
(§3) Full length active His6-tagged PDK1 was obtained from Merck Millipore (14-452).
(§4) 1× assay buffer (AB): 50 mM HEPES pH 7.5, 1 mM EGTA, 10 mM MgCl2, 0.01% Tween. Immediately before use, DTT to a concentration of 2 mM was added.
(§5) To prepare lipid vesicles: 1 mg/ml PtdIns(3,4,5)P3 solution (in 10 mM HEPES 7.5) was added to 16.7 mg/ml DOPS/DOPC mixture (in 10 mM HEPES pH 7.5) in a ratio of 1:8.3. MilliQ water was added to the solution to generate concentrations of 400 μM DOPS, 400 μM DOPC and 40 μM PtdIns(3,4,5)P3. The mixture was subjected to 5× freeze/thaw cycles and aliquots stored at −20° C.
(§6) 5 μL enzyme in 1×AB was incubated with 2.5 μL test compound. To start the reaction 2.5 μL reaction mix was added which consisted of PDK1, lipid preparations, crosstide and ATP in 1×AB. Final assay concentrations were as follows: 1% DMSO, 5 nM SignalChem Akt1/15 nM SignalChem Akt2/3 nM Signalchem Akt3/5 nM Proteros Akt1/5 nM proteros Akt2/5 nM Proteros Akt3, 5 nM PDK1, 5.5 μM DOPS, 5.5 μM DOPC, 0.55 μM PtdIns(3,4,5)P3, 100 μM ATP, 100 nM LANCE® Ultra Ulight™-Crosstide. After 30 min, the reaction was stopped using 5 μL 40 μM EDTA in 1× Detection buffer for 5 min. For detection, 5 μL 8 nM LANCE® Ultra Europium-anti-phospho-Crosstide antibody in 1× Detection buffer was added to each well and incubated for 1 h. Plates read with the EnVision® Multilabel Plate Reader, excitation at 320 nm and emission at 665 nm and 615 nm. Compound IC50 was determined using a 4-parameter equation.

p-Akt2 in WM115 cells = molecular target: T2, p-Akt2 in WM115 cells (Homo sapiens, UniProt P31751); assay: Phospho-Akt cellular SureFire assay, p-Akt2 in WM115 cells; type: cell-based; details: insulin stimulated, read-out: Biological Assay 2 IC50 (nM) Akt2 WM115
T2 construct: SureFire assays to detect cellular p-Akt1, p-Akt2 and p-Akt3 levels in WM115 cells (Akt2/3) and LNCaP cells (Akt1); endogenous in cells; host or cells: WM115 (ECACC 91061232), insulin-stimulated
T2 sequence (P31751 whole entry): as above
Description: (§7) Biological Assay 2: Phospho-Akt (p-Akt) Cellular SureFire Assays
(§8) The following describes SureFire assays to detect cellular p-Akt1, p-Akt2 and p-Akt3 levels in WM115 cells (Akt2/3) and LNCaP cells (Akt1). In the case of Akt2 and Akt3, Streptavidin-coated donor beads capture a biotinylated anti-mouse antibody that in turn recognises a mouse total Akt antibody which is specific to each isoform. The protein A-conjugated acceptor beads capture an antibody that recognises the phosphoprotein. Similarly in the Akt1 kit, the donor and acceptor beads are used to capture each antibody pair consisting of an antibody that specifically recognises Akt1 as well as an antibody that recognises the phosphoprotein. In each case, close proximity of the beads allows energy transfer from donor to acceptor.
(§9) Custom kit from TGR/Perkin Elmer for Akt2/3 containing anti-(pThr308)Akt antibody and biotinylated anti-mouse capture antibody.
Total Akt2 antibody (NEB UK, 5239)
(§10) WM115 cells (ECACC, 91061232) cultured in MEM culture media (M2279) supplemented with 2 mM L-glutamine (G7513), 1% non-essential amino acids (M7145), 1% sodium pyruvate (S8636) and 10% FBS (F0804)
(§11) Cell treatment: 1×10^5 WM115 cells or 5×10^4 LNCaP cells were seeded into each well of a 96 well poly-D-Lysine coated tissue culture plate and incubated overnight at 37° C.+5% CO2. Media was removed from cells and replaced with assay buffer consisting of the full culture media described above but with 0.1% FBS instead of 10% FBS. Only WM115 cells were stimulated at 37° C.+5% CO2 for 10 min with 5 μL insulin at a final concentration of 100 nM. Cells were incubated with 5 μL of test compound at a final DMSO concentration of 0.3% for 15 min at 37° C.+5% CO2. Cell lysis was carried out according to kit instructions.
(§12) Assay format (performed in subdued lighting): 4 μL cell lysate and 5 μL reaction buffer were incubated together in the dark at room temperature for 2 h. Reaction buffer was supplemented with a 1/5 dilution of activation buffer, a 1/50 dilution of acceptor beads and in the case of the custom kits, antibodies were added at dilutions of 1/20,000 for Akt2 and 1/2,000 for Akt3.
(§13) 2 μL dilution buffer, supplemented with a 1/20 dilution of donor beads was added to each well and incubated for a further 2 h. Plates were read with the EnVision® Multilabel Plate Reader and using the AlphaScreen settings. Compound IC50 was determined using a 4-parameter equation.

p-Akt3 in WM115 cells = molecular target: T3, p-Akt3 in WM115 cells (Homo sapiens, UniProt Q9Y243); assay: Phospho-Akt cellular SureFire assay, p-Akt3 in WM115 cells; type: cell-based; details: insulin stimulated, read-out: Biological Assay 2 IC50 (nM) Akt3 WM115
T3 construct: SureFire assays to detect cellular p-Akt1, p-Akt2 and p-Akt3 levels in WM115 cells (Akt2/3) and LNCaP cells (Akt1); endogenous in cells; host or cells: WM115 (ECACC 91061232), insulin-stimulated
T3 sequence (Q9Y243 whole entry): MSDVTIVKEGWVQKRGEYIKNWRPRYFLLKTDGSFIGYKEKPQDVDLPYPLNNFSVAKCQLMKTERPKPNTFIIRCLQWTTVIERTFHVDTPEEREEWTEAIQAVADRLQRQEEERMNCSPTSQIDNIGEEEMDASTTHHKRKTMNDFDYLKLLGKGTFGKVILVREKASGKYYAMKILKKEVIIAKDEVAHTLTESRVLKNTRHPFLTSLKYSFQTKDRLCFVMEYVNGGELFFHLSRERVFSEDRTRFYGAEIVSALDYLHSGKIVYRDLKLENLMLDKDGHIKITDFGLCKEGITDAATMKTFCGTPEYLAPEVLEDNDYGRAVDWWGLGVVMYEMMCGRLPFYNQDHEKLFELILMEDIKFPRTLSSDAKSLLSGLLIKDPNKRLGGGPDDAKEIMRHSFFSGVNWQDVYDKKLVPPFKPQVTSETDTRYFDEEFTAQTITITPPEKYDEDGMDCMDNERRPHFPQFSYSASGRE
Description: as §7, §8, §9
Total Akt3 antibody (R&D Systems MAB 1463)
as §10, §11, §12, §13

Akt3 = molecular target: T4, Akt3 (Homo sapiens, UniProt Q9Y243); assay: Akt activation assay (PDK1-mediated activation, LANCE Ultra crosstide TR-FRET), Akt3; type: biochemical; details: read-out: Biological Assay 1 IC50 (nM) Akt3
T4 construct: unspecified tag, removed (detagged) (cleaved yes); purchased SignalChem and Proteros (Akt3); Merck Millipore (PDK1) 14-452 (PDK1); none given for Akt3
T4 sequence (Q9Y243 whole entry): as above
Experimental: as §1, §2, §3, §4, §5, §6

Akt1 = molecular target: T5, Akt1 (Homo sapiens, UniProt P31749); assay: Akt activation assay (PDK1-mediated activation, LANCE Ultra crosstide TR-FRET), Akt1; type: biochemical; details: read-out: Biological Assay 1 IC50 (nM) Akt1
T5 construct: unspecified tag, removed (detagged) (cleaved yes); purchased SignalChem and Proteros (Akt1); Merck Millipore (PDK1) 14-452 (PDK1); none given for Akt1
T5 sequence (P31749 whole entry): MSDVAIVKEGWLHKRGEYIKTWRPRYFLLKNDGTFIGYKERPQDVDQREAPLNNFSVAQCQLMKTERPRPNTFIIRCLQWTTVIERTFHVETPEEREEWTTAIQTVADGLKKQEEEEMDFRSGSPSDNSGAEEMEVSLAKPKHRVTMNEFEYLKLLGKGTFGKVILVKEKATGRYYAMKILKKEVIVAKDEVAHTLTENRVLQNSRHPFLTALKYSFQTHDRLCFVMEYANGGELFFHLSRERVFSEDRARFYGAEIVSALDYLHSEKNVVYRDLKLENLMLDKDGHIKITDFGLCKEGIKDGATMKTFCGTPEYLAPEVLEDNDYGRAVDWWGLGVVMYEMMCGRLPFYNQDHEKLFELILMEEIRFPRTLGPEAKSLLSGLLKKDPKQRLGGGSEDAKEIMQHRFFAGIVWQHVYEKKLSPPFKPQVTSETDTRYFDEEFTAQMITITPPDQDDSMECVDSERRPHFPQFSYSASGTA
Experimental: as §1, §2, §3, §4, §5, §6

Work on CC(=O)N(C)[C@H]1CC[C@H](CC(=O)Nc2cnc(-c3ccc(C4(N)CC4)cc3)c(-c3ccccc3)c2)CC1 [Example 12, N-(6-(4-(1-aminocyclopropyl)phenyl)-5-phenylpyridin-3-yl)-2-(trans-4-(N-methylacetamido)cyclohexyl)acetamide] yielded an IC50 (Akt2) of 1000 nM, an IC50 (p-Akt2 in WM115 cells) of 2300 nM and an IC50 (p-Akt3 in WM115 cells) of 220 nM. For the same molecule, the IC50 (Akt3) was 84 nM.
COC(=O)N(C)[C@H]1CC[C@H](CC(=O)Nc2cc(-c3ccsc3)c(-c3ccc([C@]4(N)C[C@](C)(O)C4)cc3)cn2)CC1 [Example 89, Methyl (trans-4-(2-((5-(4-(trans-1-amino-3-hydroxy-3-methylcyclobutyl)phenyl)-4-(thiophen-3-yl)pyridin-2-yl)amino)-2-oxoethyl)cyclohexyl)(methyl)carbamate] gave an IC50 (p-Akt2 in WM115 cells) of 3000 nM and an IC50 (p-Akt3 in WM115 cells) of 57 nM.
Molecule CCC(=O)N(C)[C@H]1CC[C@H](CC(=O)Nc2cnc(-c3ccc(C4(N)CC4)c(F)c3)c(-c3ccccc3)c2)CC1 [Example 90, N-(trans-4-(2-((6-(4-(1-aminocyclopropyl)-3-fluorophenyl)-5-phenylpyridin-3-yl)amino)-2-oxoethyl)cyclohexyl)-N-methylpropionamide] has an IC50 (Akt2) of 2500 nM, an IC50 (p-Akt2 in WM115 cells) of 6500 nM and an IC50 (p-Akt3 in WM115 cells) of 170 nM. For the same molecule, the IC50 (Akt3) was 120 nM.
COC(=O)N(C)[C@H]1CC[C@H](CC(=O)Nc2cc(-c3ccccc3F)c(-c3ccc([C@]4(N)C[C@](C)(O)C4)cc3)cn2)CC1 [Example 96, Methyl (trans-4-(2-((5-(4-(trans-1-amino-3-hydroxy-3-methylcyclobutyl)phenyl)-4-(2-fluorophenyl)pyridin-2-yl)amino)-2-oxoethyl)cyclohexyl)(methyl)carbamate] showed an IC50 (Akt2) of 140 nM, an IC50 (p-Akt2 in WM115 cells) of 1300 nM and an IC50 (p-Akt3 in WM115 cells) of 51 nM. The IC50 (Akt3) was 18 nM.
With CC(C)C(=O)N[C@H]1CC[C@H](CC(=O)Nc2cnc(-c3ccc(C(C)(C)N)cc3)c(-c3ccccc3)c2)CC1 [Example A22, N-(trans-4-(2-((6-(4-(2-aminopropan-2-yl)phenyl)-5-phenylpyridin-3-yl)amino)-2-oxoethyl)cyclohexyl)isobutyramide] the IC50 (Akt2) was 3500 nM, the IC50 (Akt1) was > 30000 nM and the IC50 (Akt3) was 68 nM.
With CC(=O)N[C@H]1CC[C@H](CC(=O)Nc2cnc(-c3ccc(C(C)(C)N)cc3)c(-c3ccsc3)c2)CC1 [Example A23, 2-(trans-4-acetamidocyclohexyl)-N-(6-(4-(2-aminopropan-2-yl)phenyl)-5-(thiophen-3-yl)pyridin-3-yl)acetamide] the IC50 (Akt2) was 22000 nM, the IC50 (Akt1) was > 30000 nM and the IC50 (Akt3) was 1900 nM.
With CN(C(=O)CC(C)(C)C)[C@H]1CC[C@H](CC(=O)Nc2cnc(-c3ccc(C(C)(C)N)cc3)c(-c3ccccc3)c2)CC1 [Example A30, N-(trans-4-(2-((6-(4-(2-aminopropan-2-yl)phenyl)-5-phenylpyridin-3-yl)amino)-2-oxoethyl)cyclohexyl)-N,3,3-trimethylbutanamide] the IC50 (Akt2) was 16000 nM, the IC50 (Akt1) was > 30000 nM and the IC50 (Akt3) was 290 nM.
With CN(C(=O)C1(C)CC1)[C@H]1CC[C@H](CC(=O)Nc2cnc(-c3ccc(C(C)(C)N)cc3)c(-c3ccccc3)c2)CC1 [Example A31, N-(trans-4-(2-((6-(4-(2-aminopropan-2-yl)phenyl)-5-phenylpyridin-3-yl)amino)-2-oxoethyl)cyclohexyl)-N,1-dimethylcyclopropane-1-carboxamide] the IC50 (Akt2) was 11000 nM, the IC50 (Akt1) was > 30000 nM and the IC50 (Akt3) was 1400 nM.
With CN(C(=O)CC1CC1)[C@H]1CC[C@H](CC(=O)Nc2cnc(-c3ccc(C(C)(C)N)cc3)c(-c3ccccc3)c2)CC1 [Example A32, N-(trans-4-(2-((6-(4-(2-aminopropan-2-yl)phenyl)-5-phenylpyridin-3-yl)amino)-2-oxoethyl)cyclohexyl)-2-cyclopropyl-N-methylacetamide] the IC50 (Akt2) was 9700 nM, the IC50 (Akt1) was > 30000 nM and the IC50 (Akt3) was 630 nM.
For NC1(c2ccc(-c3ncc(NC(=O)C[C@H]4CC[C@H](NC(=O)C(F)F)CC4)cc3-c3ccccc3)cc2)CCC1 [Example A35, N-(trans-4-(2-((6-(4-(1-aminocyclobutyl)phenyl)-5-phenylpyridin-3-yl)amino)-2-oxoethyl)cyclohexyl)-2,2-difluoroacetamide], the IC50 (Akt2) was 370 nM, the IC50 (Akt1) was 9400 nM and the IC50 (Akt3) was 20 nM.
For CC(C)(N)c1ccc(-c2ncc(NC(=O)C[C@H]3CC[C@H](NC(=O)C4CCC4)CC3)cc2-c2ccccc2)cc1 [Example A36, N-(trans-4-(2-((6-(4-(2-aminopropan-2-yl)phenyl)-5-phenylpyridin-3-yl)amino)-2-oxoethyl)cyclohexyl)cyclobutanecarboxamide], the IC50 (Akt2) was 6800 nM, the IC50 (Akt1) was > 30000 nM and the IC50 (Akt3) was 160 nM.
NC1(c2ccc(-c3ncc(NC(=O)C[C@H]4CC[C@H](NC(=O)C5CC5)CC4)cc3-c3ccccc3)cc2)CCC1 [Example A39, N-(trans-4-(2-((6-(4-(1-aminocyclobutyl)phenyl)-5-phenylpyridin-3-yl)amino)-2-oxoethyl)cyclohexyl)cyclopropane-carboxamide] showed an IC50 (Akt2) of 140 nM, an IC50 (Akt1) of 3100 nM and an IC50 (Akt3) of 15 nM.
For CC(C)(C)C(=O)N[C@H]1CC[C@H](CC(=O)Nc2cnc(-c3ccc(C4(N)CCC4)cc3)c(-c3ccsc3)c2)CC1 [Example A40, N-(trans-4-(2-((6-(4-(1-aminocyclobutyl)phenyl)-5-(thiophen-3-yl)pyridin-3-yl)amino)-2-oxoethyl)cyclohexyl)pivalamide], the IC50 (Akt2) was 810 nM, the IC50 (Akt1) was > 27000 nM and the IC50 (Akt3) was 25 nM.
For NC1(c2ccc(-c3ncc(NC(=O)C[C@H]4CC[C@H](NC(=O)C(F)F)CC4)cc3-c3ccccc3)cc2)CC1 [Example A42, N-(trans-4-(2-((6-(4-(1-aminocyclopropyl)phenyl)-5-phenylpyridin-3-yl)amino)-2-oxoethyl)cyclohexyl)-2,2-difluoroacetamide], the IC50 (Akt2) was 810 nM, the IC50 (Akt1) was 6900 nM and the IC50 (Akt3) was 280 nM.
CC(C)(C)C(=O)N[C@H]1CC[C@H](CC(=O)Nc2cnc(-c3ccc(C4(N)CC4)cc3)c(-c3ccccc3)c2)CC1 [Example A43, N-(trans-4-(2-((6-(4-(1-aminocyclopropyl)phenyl)-5-phenylpyridin-3-yl)amino)-2-oxoethyl)cyclohexyl)pivalamide] was tested, and the IC50 (Akt2) was 520 nM, the IC50 (Akt1) was > 22000 nM and the IC50 (Akt3) was 300 nM.
